According to the NIST ThermoML archive (doi:10.1021/je4003256):
Numbers after ± are expanded uncertainties.

Details: 101.33 kPa, Liquid; for speed of sound: Pulse-echo method; for mass density: Vibrating tube method

SMILES	speed of sound (293.15 K) [m/s]	mass density (293.15 K) [kg/m3]	speed of sound (298.15 K) [m/s]	mass density (298.15 K) [kg/m3]	speed of sound (303.15 K) [m/s]	mass density (303.15 K) [kg/m3]	speed of sound (308.15 K) [m/s]	mass density (308.15 K) [kg/m3]	speed of sound (318.15 K) [m/s]	mass density (318.15 K) [kg/m3]	speed of sound (323.15 K) [m/s]	mass density (323.15 K) [kg/m3]	speed of sound (328.15 K) [m/s]	mass density (328.15 K) [kg/m3]	speed of sound (333.15 K) [m/s]	mass density (333.15 K) [kg/m3]	speed of sound (338.15 K) [m/s]	mass density (338.15 K) [kg/m3]	speed of sound (343.15 K) [m/s]	mass density (343.15 K) [kg/m3]	other results
C=CCc1ccc(O)c(OC)c1 [2-hydroxy-5-allylanisole]	1497 ± 1.3	1066.48 ± 0.28	1478.7 ± 1.3	1062.06 ± 0.28	1460.3 ± 1.3	1057.64 ± 0.28	1442.2 ± 1.3	1053.21 ± 0.27	1406.1 ± 1.2	1044.35 ± 0.27	1388.2 ± 1.2	1039.92 ± 0.26	1370.5 ± 1.2	1035.48 ± 0.26	1352.8 ± 1.2	1031.04 ± 0.25	1335.2 ± 1.2	1026.6 ± 0.25	1317.8 ± 1.2	1022.15 ± 0.25	speed of sound (288.15 K): 1515.3 ± 1.3 m/s; mass density (288.15 K): 1070.9 ± 0.29 kg/m3; speed of sound (313.15 K): 1424.1 ± 1.3 m/s; mass density (313.15 K): 1048.78 ± 0.27 kg/m3
COc1ccccc1O [2-methoxyphenol]	1548.3 ± 1.3	1133.81 ± 0.34	1528.7 ± 1.3	1128.96 ± 0.34	1509.3 ± 1.3	1124.11 ± 0.33	1490 ± 1.3	1119.25 ± 0.33	1451.5 ± 1.3	1109.51 ± 0.32	1432.4 ± 1.3	1104.63 ± 0.32	1413.5 ± 1.3	1099.74 ± 0.31	1394.6 ± 1.2	1094.84 ± 0.31	1375.8 ± 1.2	1089.94 ± 0.3	1357.1 ± 1.2	1085.02 ± 0.3	speed of sound (288.15 K): 1567.6 ± 1.3 m/s; mass density (288.15 K): 1138.64 ± 0.34 kg/m3; speed of sound (313.15 K): 1470.7 ± 1.3 m/s; mass density (313.15 K): 1114.38 ± 0.32 kg/m3
Oc1ccccc1 [phenol]	–	–	–	–	–	–	–	–	1437.2 ± 1.3	1054.1 ± 0.27	1422.1 ± 1.3	1049.81 ± 0.27	1406.8 ± 1.2	1045.5 ± 0.27	1391.4 ± 1.2	1041.16 ± 0.26	1376.1 ± 1.2	1036.79 ± 0.26	1360.6 ± 1.2	1032.4 ± 0.26	–
COC(=O)c1ccccc1O [methyl 2-hydroxybenzoate]	1429.1 ± 1.3	1184.33 ± 0.38	1410.6 ± 1.3	1179.34 ± 0.38	1392.3 ± 1.2	1174.35 ± 0.37	1374 ± 1.2	1169.37 ± 0.37	1338.1 ± 1.2	1159.4 ± 0.36	1320.4 ± 1.2	1154.42 ± 0.36	1302.8 ± 1.2	1149.45 ± 0.35	1285.4 ± 1.2	1144.46 ± 0.35	1268.1 ± 1.2	1139.47 ± 0.34	1250.9 ± 1.2	1134.49 ± 0.34	speed of sound (288.15 K): 1447.6 ± 1.3 m/s; mass density (288.15 K): 1189.32 ± 0.39 kg/m3; speed of sound (313.15 K): 1356 ± 1.2 m/s; mass density (313.15 K): 1164.38 ± 0.36 kg/m3
Cc1ccc(O)cc1 [4-methylphenol]	1502.9 ± 2.1	1034.09 ± 0.91	1487.2 ± 2.1	1030.25 ± 0.9	1471.4 ± 2.1	1026.39 ± 0.89	1455.6 ± 2.1	1022.5 ± 0.88	1424.3 ± 2.1	1014.66 ± 0.87	1408.7 ± 2.1	1010.7 ± 0.86	1393 ± 2.1	1006.72 ± 0.85	1377.4 ± 2.1	1002.7 ± 0.84	1361.8 ± 2.1	998.659 ± 0.84	1346.2 ± 2.1	994.587 ± 0.83	speed of sound (313.15 K): 1440 ± 2.1 m/s; mass density (313.15 K): 1018.59 ± 0.88 kg/m3
Cc1cccc(O)c1 [3-methylphenol]	1497.9 ± 1.3	1033.84 ± 0.26	1481.9 ± 1.3	1029.91 ± 0.25	1466.2 ± 1.3	1025.96 ± 0.25	1450.5 ± 1.3	1021.99 ± 0.25	1419.5 ± 1.3	1013.99 ± 0.24	1403.9 ± 1.2	1009.97 ± 0.24	1388.4 ± 1.2	1005.91 ± 0.23	1372.9 ± 1.2	1001.84 ± 0.23	1357.3 ± 1.2	997.743 ± 0.23	1341.8 ± 1.2	993.626 ± 0.23	speed of sound (313.15 K): 1435 ± 1.3 m/s; mass density (313.15 K): 1018 ± 0.24 kg/m3
Cc1ccccc1O [2-methylphenol]	1522.6 ± 1.3	1045.77 ± 0.27	1505.5 ± 1.3	1041.41 ± 0.26	1488.2 ± 1.3	1037.05 ± 0.26	1470.2 ± 1.3	1032.64 ± 0.26	1435.2 ± 1.3	1023.83 ± 0.25	1417.7 ± 1.3	1019.39 ± 0.24	1400.2 ± 1.2	1014.93 ± 0.24	1382.8 ± 1.2	1010.46 ± 0.24	1365.3 ± 1.2	1005.97 ± 0.23	1347.7 ± 1.2	1001.46 ± 0.23	speed of sound (313.15 K): 1452.7 ± 1.3 m/s; mass density (313.15 K): 1028.25 ± 0.25 kg/m3
